This note sets out measurements from patent publication US20260373132A1, “PERK INHIBITORHC-5404 IN COMBINATION WITH ANTI-PD-1 ANTIBODY AND/OR AN ANTIANGIOGENETIC AGENT FOR USE IN THE TREATMENT OF CANCER” (HIBERCELL, INC., priority 2022, published 2026).

Data set [1] relates to ATF4 levels in HEK293. Description: HEK293 cell-based ATF4 western blot. Particulars: Homo sapiens; HEK293, tunicamycin 1 μM. The method, then:
Cell based assays HEK293 cells were plated at 1×10^6 cells per well and treated with HC-5404 30 minutes prior to addition of tunicamycin (1 μM) to induce ER stress. Cells were harvested 4 hours following tunicamycin addition and lysed for western blotting in RIPA buffer supplemented with protease and phosphatase inhibitors. Total protein concentrations were determined by BCA and […] of protein were loaded on to SDS-PAGE gels, transferred to nitrocellulose and probed with a primary antibody against phosphorylated T-982 of human PERK or total ATF4 followed by incubation with an infrared labelled secondary antibody. Blots were imaged on a LiCor imager and normalized to total protein in the wells using Revert™ stain. Band intensities were quantified and normalized to DMSO treated samples. Normalized band intensities were plotted as percent inhibition against 10-point; 3-fold dilution series of HC-5404. IC50 values were calculated using 4-parameter logistical fitting in XLFit.
The cell-based activity of HC-5404 was evaluated using HEK293 treated with tunicamycin (Tm; 1 μM) to induce ER stress.

Data set [2] can be described thus: mouse plasma protein binding. Type of data set: in vitro ADME. The following applies: read-out: Mouse plasma protein binding (PPB %) (converted). The method, then: Initial in vivo studies aimed at understanding the pharmacokinetic and pharmacodynamic (PK/PD) relationship and optimizing the dosing regimen were conducted. HC-5404 was quantified from mouse plasma following a single oral administration (PO) at doses ranging from 3 to 100 mg/kg. […] Mouse plasma protein binding (PPB %) was determined to be 95.6%, which enabled us to calculate the free drug plasma exposure across time (FIG. 18).

Data set [3] has as its system pPERK in mouse pancreas. Nature of the data set: pPERK inhibition (PD) in mouse pancreas. Format: in vivo. The method, then:
The PK/PD relationship was evaluated in mouse pancreas, as the pancreas has elevated pPERK activity that makes it suitable for PD analysis. […] At these concentrations, pPERK inhibition was approximately 90% (FIG. 19).

In data set [4] the test system is Capan-2 pancreatic tumor xenografts. Description: CAPAN-2 pancreatic xenograft tumor growth. The following applies: for TGI: 48 days. Format: in vivo, mouse.
In data set [5] the test system is mouse pancreas. Nature of the data set: pancreas histology (pancreatic toxicity). Format: in vivo. The method, then:
As PERK inhibition has been associated with pancreatic toxicity, pancreas sections were evaluated from mice treated with 30 mg/kg or 100 mg/kg HC-5404. […] Together, these findings further supported the decision to dose at 30 mg/kg HC-5404 in subsequent in vivo studies.

For data set [6], the system named is Caki-1 RCC xenograft. Description: Caki-1 RCC xenograft tumor growth. Type of data set: in vivo, mouse. How it is done:
Xenograft RCC models were generated as follows: Female NOD.SCID mice (6-8 weeks of age) were injected with A498 RCC cells (5×10^6 cells/mouse), female Balb/c Nude mice (6-8 weeks old) were implanted with 786-O RCC cells (5×10^6 cells/mouse) or Caki-1 RCC cells (6×10^6 cells/mouse), female Athymic Nude-Foxn1nu mice (7-8 weeks of age) were implanted with MFE280 endometrial cells (10×10^6 cells/mouse). Cells were implanted into the flank of animals.
Once tumor tumors reached volume of typically 150-250 mm^3, animals were randomized by tumor volume into the treatment groups of 8 or 10 animals per group. In the single animal trial with RCC PDX models, only one animal per group was enrolled.
(§1) Body weight and tumor volume were measured twice weekly. Tumor volume was calculated using the formula [tumor volume (mm^3)=π/6×length×width^2] and plotted as means+SEM. The percentage of tumor growth inhibition was calculated at the end of the study using the formula: […], if ΔT>0, ΔT, mean tumor volume of the drug-treated group on the observation day of the study—mean tumor volume of the drug-treated group on initial day of dosing; ΔC, mean tumor volume of the control group on the observation day of the study—mean tumor volume of the control group on initial day of dosing. Regression was calculated using the formula=100×ΔT/Tinitial, if ΔT<0. Animals with >50% regressions were partial responders. Animals with tumor volume of 0 (no measurable tumor) were considered as complete responders, and animals with <50% tumor regression and 30% growth over the baseline were considered as stable disease. Animals with tumors>30% increase over the baseline were considered progressive disease. The % change in body weight was calculated by the formula (body weight on observation day−body weight on initial day)/body weight on initial day×100%.

The subject of data set [7] is 786-O xenografts progressed on axitinib. Description: growth of 786-O xenografts that progressed on axitinib. The following applies: single agent 30 mg/kg PO BID, 28 days after progression on axitinib (FIG. 40). Type of data set: in vivo, mouse. The source says:
After 14 days of treatments, 77 mice bearing the largest tumors were rerandomized into four PD arms (n=8), four efficacy arms (n=10), and 5 tumors sampled on day of rerandomization as a baseline. The remaining animals were removed from study.
Despite initial responses to VEGFR-TKI therapy, tumor regrowth necessitates subsequent rounds of alternate therapies to improve patient outcomes.

Data set [8] can be described thus: mouse body weight / tolerability. The following applies: 786-O, HC-5404 3, 10, 30 mg/kg BID and/or cabozantinib 30 mg/kg QD (FIG. 53). Format: in vivo. How it is done: as §1
The test system of data set [9] is RXF-2304. Description: RCC PDX single animal trial, RXF-2304. Format: in vivo, mouse. The following applies: HC-5404 30 mg/kg PO BID, n=1. From the text: This example investigated the effect of HC-5404 in combination with VEGFR-TKIs in inhibiting tumor growth using 12 RCC PDX tumor models, following procedures analogous to those described above.
Single animal per group (n=1) trial of animals harboring diverse RCC PDX models were used in this study.

SMILES strings stand for the structures.

`Cc1cc(NC(=O)[C@H](O)c2cc(F)cc(F)c2)ccc1-c1cnc(N)c(C(=O)NC(C)C)c1` [HC-5404, (R)-2-amino-5-(4-(2-(3,5-difluorophenyl)-2-hydroxyacetamido)-2-methylphenyl)-N-isopropylnicotinamide]: the half-inhibitory concentration (IC50) (as a rule, the midpoint of a concentration-inhibition curve) in data set [1] amounted to 115 nM. The fraction unbound in data set [2] was 0.044. In data set [3] (30 mg/kg PO, after dosing), the “time until basal pPERK levels restored in pancreas” value is no more than 12 h. Moreover, the “pPERK activity remaining in pancreas” value in [3] (100 mg/kg PO, first 12 h) is less than 20%. For the same molecule, the inhibition – broadly, the relative decrease from the control value, in per cent – at 30 mg/kg in [3] (Mus musculus, 30 mg/kg PO, 1 h) is roughly 90%. Further, the “inhibition of p-PERK in pancreas tissue” value in data set [3] (PO) is “time-dependent and dose-dependent inhibition of p-PERK”. Moreover, the inhibition of tumour growth (TGI) – broadly, how far tumour growth fell short of that in controls – in [4] (30 mg/kg PO BID) is on record as 50%; in data set [4] (100 mg/kg PO BID) it was 43%. In addition, the “difference between dose levels in TGI” value in data set [4] (30 vs 100 mg/kg BID) is reported as “No difference between the dose levels”. Moreover, the “reversibility of histological pancreas changes” value in data set [5] (100 mg/kg PO BID, two-week washout) is “reversible with a two-week washout period”. In addition, in [5] (30 or 100 mg/kg PO BID, three weeks), the “histological changes in the pancreas” value is “histological changes in the pancreas only in the 100 mg/kg dose”. Also, in data set [6] (10 and 30 mg/kg PO BID tested, 28 days (FIG. 36)), the “effect on growth of Caki-1 model” value is “minimal effect”. The “sensitivity of Caki-1 to monotherapy” value in [6] (HC-5404 or sunitinib monotherapy, compared with A498 (FIG. 32)) is “far less sensitive”. Moreover, in data set [7], the “tumor growth inhibition relative to vehicle” value turned out to be 47%. Besides, in [8], the mouse body weight entry is listed as “did not affect mouse body weight”. In addition, in [9], the “antitumor efficacy as monotherapy” value is “exhibited antitumor efficacy”.
